Reference: patent publication EP1795539B1, “Cell penetrating peptides for intracellular delivery of molecules” (Centre National de la Recherche Scientifique, priority 2005, dated 2007)
Where two headings read alike, the source gives them in different places. Numbered stars: 1 amine (or outer) side, 2 acyl side, 3 side chain; on linkers, the order of the positions; unused ones are H or OH. Ends that are not written are not given here. Peptide text beside a SMILES is read from it. Cysteamide = C(CS[*:3])N[*:1]

Experiments:
HS-68 and Hela cells = experiment: Toxicity of CADY variants, MTT cell viability assay (Table 1); format: cell-based; settings: for toxicity: at concentration of 100 µM
Description: The toxicity of CADY peptides has been investigated on different cell lines. Cells were incubated in the presence of increasing concentrations of CADY (from 0.1 µM to 1 mM) for 12 hrs and cell viability was estimated using MTT assay.

[1] = target: short 17-residues peptide (cargo used with CADY-2); experiment: steady state Trp fluorescence quenching; fixed CADY (0.1 uM) titrated with cargo peptide; quadratic fit
[2] = free peptide, MTT, read-out: free EC50

CC(C)C[C@H](NC(=O)CN)C(=O)N[C@@H](Cc1c[nH]c2ccccc12)C(=O)N[C@@H](CCCNC(=N)N)C(=O)N[C@@H](C)C(=O)N[C@@H](CC(C)C)C(=O)N[C@@H](Cc1c[nH]c2ccccc12)C(=O)N[C@@H](CCCNC(=N)N)C(=O)N[C@@H](C)C(=O)N[C@@H](CC(C)C)C(=O)N[C@@H](Cc1c[nH]c2ccccc12)C(=O)N[C@@H](CCCNC(=N)N)C(=O)N[C@@H](CO)C(=O)N[C@@H](CC(C)C)C(=O)N[C@@H](Cc1c[nH]c2ccccc12)C(=O)N[C@@H](CCCCN)C(=O)N[C@@H](CC(C)C)C(=O)N[C@@H](CCCCN)C(=O)N[C@@H](CCCNC(=N)N)C(=O)N[C@@H](CCCCN)C(=O)N[C@H](C(=O)NCCS)C(C)C [CADY-1b] (HELM PEPTIDE1{G.L.W.R.A.L.W.R.A.L.W.R.S.L.W.K.L.K.R.K.V.[SCCN[*:1]]}$$$$V2.0)
EC50 (HS-68 and Hela cells; free peptide, MTT, listed as CADY-2d, read-out: free EC50): 380 µM
EC50 (HS-68 and Hela cells; [2]): 500 µM

CC(C)C[C@H](NC(=O)CN)C(=O)N[C@@H](Cc1c[nH]c2ccccc12)C(=O)N[C@@H](CCCNC(=N)N)C(=O)N[C@@H](C)C(=O)N[C@@H](CC(C)C)C(=O)N[C@@H](Cc1c[nH]c2ccccc12)C(=O)N[C@@H](CCCNC(=N)N)C(=O)N[C@@H](C)C(=O)N[C@@H](CC(C)C)C(=O)N[C@@H](CCCNC(=N)N)C(=O)N[C@@H](CO)C(=O)N[C@@H](CC(C)C)C(=O)N[C@@H](Cc1c[nH]c2ccccc12)C(=O)N[C@@H](CCCCN)C(=O)N[C@@H](CC(C)C)C(=O)N[C@@H](CCCCN)C(=O)N[C@@H](CCCNC(=N)N)C(=O)N[C@@H](CCCCN)C(=O)N[C@H](C(=O)NCCS)C(C)C [CADY-1c] (HELM PEPTIDE1{G.L.W.R.A.L.W.R.A.L.R.S.L.W.K.L.K.R.K.V.[SCCN[*:1]]}$$$$V2.0)
EC50 (HS-68 and Hela cells; [2]): 450 µM

CC(C)C[C@H](NC(=O)CN)C(=O)N[C@@H](Cc1c[nH]c2ccccc12)C(=O)N[C@@H](CCCNC(=N)N)C(=O)N[C@@H](C)C(=O)N[C@@H](CC(C)C)C(=O)N[C@@H](Cc1c[nH]c2ccccc12)C(=O)N[C@@H](CCCNC(=N)N)C(=O)NCC(=O)N[C@@H](CC(C)C)C(=O)N[C@@H](CCCNC(=N)N)C(=O)N[C@@H](CO)C(=O)N[C@@H](CC(C)C)C(=O)N[C@@H](Cc1c[nH]c2ccccc12)C(=O)N[C@@H](CCCCN)C(=O)N[C@@H](CC(C)C)C(=O)N[C@@H](CCCCN)C(=O)N[C@@H](CCCNC(=N)N)C(=O)N[C@@H](CCCCN)C(=O)N[C@H](C(=O)NCCS)C(C)C [CADY-1d] (HELM PEPTIDE1{G.L.W.R.A.L.W.R.G.L.R.S.L.W.K.L.K.R.K.V.[SCCN[*:1]]}$$$$V2.0)
EC50 (HS-68 and Hela cells; [2]): 500 µM

CC(C)C[C@H](NC(=O)CN)C(=O)N[C@@H](Cc1c[nH]c2ccccc12)C(=O)N[C@@H](CCCNC(=N)N)C(=O)N[C@@H](C)C(=O)N[C@@H](CC(C)C)C(=O)N[C@@H](Cc1c[nH]c2ccccc12)C(=O)N[C@@H](CCCNC(=N)N)C(=O)NCC(=O)N[C@@H](CC(C)C)C(=O)N[C@@H](CCCNC(=N)N)C(=O)N[C@@H](CO)C(=O)N[C@@H](CC(C)C)C(=O)N[C@@H](Cc1c[nH]c2ccccc12)C(=O)N[C@@H](CCCCN)C(=O)N[C@@H](CCCCN)C(=O)N[C@@H](CCCCN)C(=O)N[C@@H](CCCNC(=N)N)C(=O)N[C@@H](CCCCN)C(=O)N[C@H](C(=O)NCCS)C(C)C [CADY-1e] (HELM PEPTIDE1{G.L.W.R.A.L.W.R.G.L.R.S.L.W.K.K.K.R.K.V.[SCCN[*:1]]}$$$$V2.0)
EC50 (HS-68 and Hela cells; [2]): 340 µM

CC(=O)NCC(=O)N[C@@H](CC(C)C)C(=O)N[C@@H](Cc1c[nH]c2ccccc12)C(=O)N[C@@H](CCCNC(=N)N)C(=O)N[C@@H](C)C(=O)N[C@@H](CC(C)C)C(=O)N[C@@H](Cc1c[nH]c2ccccc12)C(=O)N[C@@H](CCCNC(=N)N)C(=O)N[C@@H](C)C(=O)N[C@@H](CC(C)C)C(=O)N[C@@H](Cc1c[nH]c2ccccc12)C(=O)N[C@@H](CCCNC(=N)N)C(=O)N[C@@H](CO)C(=O)N[C@@H](CC(C)C)C(=O)N[C@@H](Cc1c[nH]c2ccccc12)C(=O)N[C@@H](CCCCN)C(=O)N[C@@H](CC(C)C)C(=O)N[C@@H](CCCCN)C(=O)N[C@@H](Cc1c[nH]c2ccccc12)C(=O)N[C@@H](CCCCN)C(=O)N[C@H](C(=O)NCCS)C(C)C [CADY-2] (HELM PEPTIDE1{[ac].G.L.W.R.A.L.W.R.A.L.W.R.S.L.W.K.L.K.W.K.V.[SCCN[*:1]]}$$$$V2.0)
EC50 (HS-68 and Hela cells; [2]): 230 µM

CC(C)C[C@H](NC(=O)CN)C(=O)N[C@@H](Cc1c[nH]c2ccccc12)C(=O)N[C@@H](CCCNC(=N)N)C(=O)N[C@@H](C)C(=O)N[C@@H](CC(C)C)C(=O)N[C@@H](Cc1c[nH]c2ccccc12)C(=O)N[C@@H](CCCNC(=N)N)C(=O)N[C@@H](C)C(=O)N[C@@H](CC(C)C)C(=O)N[C@@H](Cc1c[nH]c2ccccc12)C(=O)N[C@@H](CCCNC(=N)N)C(=O)N[C@@H](CO)C(=O)N[C@@H](CC(C)C)C(=O)N[C@@H](Cc1c[nH]c2ccccc12)C(=O)N[C@@H](CCCCN)C(=O)N[C@@H](CO)C(=O)N[C@@H](CCCCN)C(=O)N[C@@H](CCCNC(=N)N)C(=O)N[C@@H](CCCCN)C(=O)N[C@H](C(=O)NCCS)C(C)C [CADY-2b] (HELM PEPTIDE1{G.L.W.R.A.L.W.R.A.L.W.R.S.L.W.K.S.K.R.K.V.[SCCN[*:1]]}$$$$V2.0)
EC50 (HS-68 and Hela cells; [2]): 280 µM

CC(C)C[C@H](NC(=O)CN)C(=O)N[C@@H](Cc1c[nH]c2ccccc12)C(=O)N[C@@H](CCCNC(=N)N)C(=O)N[C@@H](C)C(=O)N[C@@H](CC(C)C)C(=O)N[C@@H](Cc1c[nH]c2ccccc12)C(=O)N[C@@H](CCCNC(=N)N)C(=O)N[C@@H](C)C(=O)N[C@@H](CC(C)C)C(=O)N[C@@H](Cc1c[nH]c2ccccc12)C(=O)N[C@@H](CCCNC(=N)N)C(=O)N[C@@H](CO)C(=O)N[C@@H](CC(C)C)C(=O)N[C@@H](Cc1c[nH]c2ccccc12)C(=O)N[C@@H](CCCCN)C(=O)N[C@@H](CCCCN)C(=O)N[C@@H](CCCCN)C(=O)N[C@@H](CCCNC(=N)N)C(=O)N[C@@H](CCCCN)C(=O)N[C@H](C(=O)NCCS)C(C)C [CADY-2c] (HELM PEPTIDE1{G.L.W.R.A.L.W.R.A.L.W.R.S.L.W.K.K.K.R.K.V.[SCCN[*:1]]}$$$$V2.0)
EC50 (HS-68 and Hela cells; [2]): 340 µM

CC(C)C[C@H](NC(=O)CN)C(=O)N[C@@H](Cc1c[nH]c2ccccc12)C(=O)N[C@@H](CCCNC(=N)N)C(=O)N[C@@H](C)C(=O)N[C@@H](CC(C)C)C(=O)N[C@@H](Cc1c[nH]c2ccccc12)C(=O)N[C@@H](CCCNC(=N)N)C(=O)N[C@@H](CC(C)C)C(=O)N[C@@H](CC(C)C)C(=O)N[C@@H](CCCNC(=N)N)C(=O)N[C@@H](CO)C(=O)N[C@@H](CC(C)C)C(=O)N[C@@H](Cc1c[nH]c2ccccc12)C(=O)N[C@@H](CCCNC(=N)N)C(=O)N[C@@H](CC(C)C)C(=O)N[C@@H](CC(C)C)C(=O)N[C@@H](Cc1c[nH]c2ccccc12)C(=O)N[C@@H](CO)C(=O)N[C@@H](CCC(N)=O)C(=O)N1CCC[C@H]1C(=O)N[C@@H](CCCCN)C(=O)N[C@@H](CCCCN)C(=O)N[C@@H](CCCCN)C(=O)N[C@@H](CCCNC(=N)N)C(=O)N[C@@H](CCCCN)C(=O)N[C@H](C(=O)NCCS)C(C)C [CADY-2e] (HELM PEPTIDE1{G.L.W.R.A.L.W.R.L.L.R.S.L.W.R.L.L.W.S.Q.P.K.K.K.R.K.V.[SCCN[*:1]]}$$$$V2.0)
EC50 (HS-68 and Hela cells; [2]): 430 µM

CC(=O)NCC(=O)N[C@@H](CC(C)C)C(=O)N[C@@H](Cc1c[nH]c2ccccc12)C(=O)N[C@@H](CCCNC(=N)N)C(=O)N[C@@H](C)C(=O)N[C@@H](CC(C)C)C(=O)N[C@@H](Cc1c[nH]c2ccccc12)C(=O)N[C@@H](CCCNC(=N)N)C(=O)N[C@@H](CC(C)C)C(=O)N[C@@H](CC(C)C)C(=O)N[C@@H](CCCNC(=N)N)C(=O)N[C@@H](CO)C(=O)N[C@@H](CC(C)C)C(=O)N[C@@H](Cc1c[nH]c2ccccc12)C(=O)N[C@@H](CCCNC(=N)N)C(=O)N[C@@H](CC(C)C)C(=O)N[C@@H](CC(C)C)C(=O)N[C@@H](Cc1c[nH]c2ccccc12)C(=O)N[C@@H](CCCCN)C(=O)N[C@@H](C)C(=O)NCCSS[C@H]1CC[C@@]2(C)C(=CC[C@H]3[C@@H]4CC[C@H]([C@H](C)CCCC(C)C)[C@@]4(C)CC[C@@H]32)C1 [CADY-S2] (HELM PEPTIDE1{[ac].G.L.W.R.A.L.W.R.L.L.R.S.L.W.R.L.L.W.K.A.[CC(C)CCC[C@@H](C)[C@H]1CC[C@H]2[C@@H]3CC=C4C[C@@H](SSCCN[*:1])CC[C@]4(C)[C@H]3CC[C@]12C]}$$$$V2.0; N-terminus assumed)
EC50 (HS-68 and Hela cells; 12 h): 250 µM

WEAALAEALAEALAEHLAEALAEALEALAA [GALA, reference compound]
toxicity (HS-68 and Hela cells): > 70%

WEAKLAKALAKALAKHLAKALAKALKACEA [KALA, reference compound]
toxicity (HS-68 and Hela cells): > 70%

Ac-GLWRALWRALWRSLWKLKWKV-Cysteamide [CADY-2 (Ac-…-Cya)]
Kd [1]: 0.019 µM
ratio at saturation (cargo/CADY molar ratio) [1]: 0.05
